Bounds are passed on as bounds.

Data set [1] has as its system HGPS-iPSC SMCs. Kind of data set: Cell detachment under arterial flow in microfluidic system (loss of function studies). In kind it is cell-based, human. The conditions noted are these: for HGPS-iPSC SMC detachment: both clones, arterial flow 20 dyne/cm^2, up to 12 days, MMP13 inhibitor 8 nM, BB-94 20 nM. As to the method: After 4 h, a confluent cell layer was formed, which was then perfused with SmGM-2 medium at physiological flow rate (20 dyne/cm^2). Unless specified, all tests were performed at day 0 and after 4 days on flow culture conditions. Cell number and cell clumps were determined on slides stained with DAPI (20×) and normalized by image area (0.3524 mm^2). Cell clumps areas were evaluated by Image J software.
In case of calcification inhibition studies, cells were treated with SmGM-2 medium containing sodium pyrophosphate (0.9 mM, Sigma), and in case of farnesyltrasferase inhibitor studies, cells were treated with SmGM-2 medium containing Tipifarnib (1 μM) or Lonafarnib (20 μM, Absouce Diagnostics). In MMP, calcification and farnesyltransferase inhibition studies, cells were perfused with medium containing the drug at a flow rate of 20 dyne/cm^2. Medium was changed every 7 days. Cell number and viability (Presto Blue assay) was monitored overtime. In case of MMP-13 inhibition studies, MMP activity was assessed at day 4, and the percentage of progerin positive cells and the expression of phosphatase alkaline were evaluated at day 7.
The complexation of siRNAs with lipofectamine was allowed to proceed for 40 min at room temperature. […] The culture media was changed after 72 h.

Another data set concerns HOZ mSMCs. Kind of data set: Detachment of progeria mouse SMCs under flow shear stress. The following applies: flow conditions, media supplemented with inhibitor. In kind it is cell-based. The text has this: Mice. Male^LmnaG609G/G609G, and wild-type were used (Osorio F G, Navarro C L, Cadinanos J, Lopez-Mejia I C, Quiros P M, Bartoli C, Rivera J, Tazi J, Guzman G, Varela I, Depetris D, de Carlos F, Cobo J, Andres V, De Sandre-Giovannoli A, Freije J M, Levy N, Lopez-Otin C. Splicing-directed therapy in a new mouse model of human accelerated aging. Science translational medicine. 2011;3:106ra107). Animal studies were approved by the local <<comité d'éthique pour l'expérimentation animale>> (Marseille Animal Care Commitee, Protocol n° 96-21122012) and conformed to the Directive 2010/63/EU of the European parliament regarding the protection of animals used for experimental and other scientific purposes. Mouse vSMCs (mSMC) were prepared from thoracic aortas of 6 or 18 week-old mice. Briefly, after fat tissue removal around aortic region, aorta was dissected from its origin to the proximity of the diaphragm. Aortas from two mice were put into HBSS 1×, on ice then rinse once in HBSS. Aorta were digested 10 minutes at 37° C. in enzyme solution freshly prepared the day of isolation (Collagenase 1 mg/ml, Soybean Trypsin inhibitor 1 mg/ml, elastase 0.744 units/ml—Worthington biochemical—, penicillin/streptomycin 1%, HBSS 1×). […] The loss of mSMC during time was assessed by the percentage of occupied area.
We also analyzed the effect of MMP13 and BB94 inhibition in HOZ mSMCs. […]

A further data set deals with LmnaG609G/G609G mice. Kind of data set: In vivo treatment of progeria mice with BB-94. Also on record: species or system mouse. The procedure:
In vivo studies. 16 Lmna^G609G/G609G mice (male and female) were used. […] IP injections were used to administrate 30 mg/Kg/day of BB-94 in 3 mg/ml in PBS containing 0.01% Tween 80. The treatment was applied 5 times per week during 6 weeks (from week 5 to week 10). […] At the end of week 10 the mice were sacrificed and the selected parameters were evaluated.
Gene Expression Profiling using Fluidigm. Small parts of mice aortas were frozen to be analyzed. These parts were lysated and homogenized using a MagNA instrument and MagNA Lyser Green Beads (with 5 mm (diameter) stainless steel beads). Total RNA were then isolated and quantified. DELTAgene assays (FlexSix—Fluidigm) were designed for […] transcripts. The pre-amplification process was performed for 14 cycles in order to obtain sensitivity down to a single cDNA molecule. The oligos were synthesized by Sigma and dissolved at a concentration of 100 μM in water. For each assay a Primer Pair Mix was prepared containing 50 μM Forward Primer and 50 μM Reverse Primer. In order to prepare 10× Pre-amplification Primer Mix (500 nM each primer), 10 μL of each of the 96 Primer Pair Mixes (50 μM each primer) was mixed with […] buffer consisting of 10 mM Tris-HCl, pH 8.0; 0.1 mM EDTA; 0.25% Tween-20. In order to prepare 10× Assay (5 μM each primer) each Primer Pair Mix was diluted by mixing 10 μL Primer Pair Mix (50 μM each primer) with 90 μL buffer consisting of 10 mM Tris-HCl, pH 8.0; 0.1 mM EDTA; 0.25% Tween-20. A pre-mix containing cDNA and primers was done and treatment with exonuclease I was performed to remove non-hybridized primers. The Fluidigm® FLEXsix™ Gene expression IFC was used with EvaGreen chemistry. After a prime of the chip, a 10× assay mix and sample mix were prepared and pipetted into the inlets. The chip was loaded and data was collected using the BioMark HD™. Data was analyzed using Fluidigm® Real Time PCR Analysis v2.1 software.
So far no therapy has been developed to target specifically SMC loss. Most of the compounds identified so far in pre-clinical tests to treat progeria have been focused in the reduction of progerin quantities, by either reducing its production or increasing its degradation, in the reduction of progerin toxicity by targeting its aberrant prenylation, or identifying compounds capable of restoring pathological phenotypes downstream of progerin accumulation. Therefore we asked whether the inhibition of MMP13 in LmnaG609G/G609G mice could retard SMC loss. […] LmnaG609G/G609G mice (n=8 for treatment group and control group; age: 5 weeks) were IP injected 5 times a week (30 mg/Kg/day; 3 mg/mL in PBS). […] At this time point we evaluated SMC loss in the aortic arch.

The target of the next data set is MMP-9 (Homo sapiens, UniProt P14780). The conditions noted are these: cited from earlier work.
The target of another data set is T1, MMP-7 (Homo sapiens, UniProt P09237).
T1 sequence (P09237 95-267): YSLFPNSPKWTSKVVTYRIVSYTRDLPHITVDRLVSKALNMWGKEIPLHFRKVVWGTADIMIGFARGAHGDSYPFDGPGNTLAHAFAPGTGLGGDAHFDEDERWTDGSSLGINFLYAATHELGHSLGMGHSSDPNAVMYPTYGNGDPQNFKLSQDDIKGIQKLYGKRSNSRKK
The following applies: cited from earlier work.

Data set [2] concerns HGPS-iPSC SMCs. Kind of data set: Response to farnesyltransferase inhibitor: prelamin A and nuclear morphology by immunofluorescence. The conditions noted are these: one dose 1 μM, after 48 h. It is filed as cell-based, human. The procedure:
To evaluate whether HGPS-iPSC SMCs could respond to farnesyltransferase inhibitors, as shown for other progeria cell models, cells were treated with one dose of Tipifarnib (1 μM) and after 48 h cells were characterized for the expression of prelamin A. As expected, HGPS-iPSC SMCs accumulate nuclear prelamin A (approximately 95% of the cells), as shown by immunofluorescence (FIG. 12).
Immunofluorescence analysis—In an embodiment, cells were washed with PBS, fixed with 4% paraformaldehyde (Electron Microscopy Sciences) for 15 min at room temperature and washed again with PBS. […] Binding of primary antibodies to specific cells was detected with anti-mouse IgG Cy3 (Sigma) or anti-rabbit IgG Cy3 (JacksonImmunoResearch). Cell nuclei were stained with 4′, 6′-diamidino-2-phenylindole (DAPI) (Sigma) and the slides examined with a regular (Zeiss) or high-content fluorescence microscope (IN Cell 2200, GE Healthcare). Image) software was used to quantify the overall intensity of each image, which was then normalized for cell number.

Chain of MMP-9 (P14780 94-707, species assumed): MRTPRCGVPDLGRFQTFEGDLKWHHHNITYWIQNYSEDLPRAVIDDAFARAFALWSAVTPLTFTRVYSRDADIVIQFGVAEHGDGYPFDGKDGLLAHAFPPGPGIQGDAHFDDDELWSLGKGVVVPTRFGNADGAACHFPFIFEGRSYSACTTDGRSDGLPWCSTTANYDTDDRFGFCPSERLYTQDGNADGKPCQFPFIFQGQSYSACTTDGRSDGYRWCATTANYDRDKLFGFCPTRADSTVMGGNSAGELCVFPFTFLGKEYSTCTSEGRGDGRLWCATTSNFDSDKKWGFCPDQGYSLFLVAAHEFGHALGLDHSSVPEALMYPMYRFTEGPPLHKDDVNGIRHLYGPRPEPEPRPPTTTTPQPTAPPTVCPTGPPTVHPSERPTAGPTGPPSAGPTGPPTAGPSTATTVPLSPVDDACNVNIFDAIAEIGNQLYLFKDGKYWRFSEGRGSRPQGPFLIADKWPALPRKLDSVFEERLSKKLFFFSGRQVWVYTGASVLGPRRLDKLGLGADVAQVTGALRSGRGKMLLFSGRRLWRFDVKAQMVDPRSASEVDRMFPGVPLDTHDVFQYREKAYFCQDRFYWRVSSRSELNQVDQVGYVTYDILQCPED

By IC50 is commonly meant the concentration that gives 50% inhibition. Turning to `CNC(=O)[C@H](Cc1ccccc1)NC(=O)[C@H](CC(C)C)[C@H](CSc1cccs1)C(=O)NO` [Batimastat, (2R,3S)-N4-Hydroxy-2-isobutyl-N1-[(2S)-1-(methylamino)-1-oxo-3-phenyl-2-propanyl]-3-[(2-thienylsulfanyl)methyl]succinamide], the “HGPS-iPSC SMC detachment” value in the data set on HGPS-iPSC SMCs [1] is “decreased significantly the detachment”. Moreover, the “detachment of HOZ mSMCs” value with HOZ mSMCs is recorded as “significantly delayed”. Moreover, the “solubility of the compound” value in the data set on LmnaG609G/G609G mice (3 mg/mL in PBS, IP injection) is “low solubility”. In the data set with LmnaG609G/G609G mice (IP 30 mg/Kg/day, 5 times per week, 6 weeks, cell nuclei counting and qRT-PCR, versus untreated animals), the “number of SMCs in aortic arch” value is given as “higher number of SMCs than untreated animals”. In addition, in the data set on LmnaG609G/G609G mice (IP 30 mg/Kg/day, 6 weeks), the “progerin in cells isolated from aortic arch” value is “No evidence of decrease of progerin”. Besides, the “intra-abdominal accumulation (precipitate)” value in the data set with LmnaG609G/G609G mice (IP 30 mg/Kg/day, treatment reduced from 10 to 6 weeks) is given as “intra-abdominal massive accumulation”. For the same compound, the IC50 at MMP-9 and on MMP-7 was at most 20 nM each time.
In the case of `NC(=O)N1CCC(CC(=O)N2CCC([C@H]3c4ncc(Br)cc4CCc4cc(Cl)cc(Br)c43)CC2)CC1` [Lonafarnib], the cellular detachment result in the data set on HGPS-iPSC SMCs [1] (HGPS-iPSC SMC clone 1, arterial flow, Tipifarnib 1 μM, Lonafarnib 20 μM) is “able to decrease cellular detachment”.
`Cc1cc(CNC(=O)c2cc(C(=O)NCc3ccc(F)c(C)c3)ncn2)ccc1F` [MMP-13 inhibitor, pyrimidine-4,6-dicarboxylic acid, bis-(4-fluoro-3-methyl-benzylamide)]: the “HGPS-iPSC SMC detachment” value with HGPS-iPSC SMCs [1] is on record as “decreased significantly the detachment”. Also, in the data set with HOZ mSMCs, the “detachment of HOZ mSMCs” value was “significantly delayed”.
With `Cn1cncc1[C@@](N)(c1ccc(Cl)cc1)c1ccc2c(c1)c(-c1cccc(Cl)c1)cc(=O)n2C` [Tipifarnib], the “cells accumulating nuclear prelamin A” value in the data set on HGPS-iPSC SMCs [2] was “approximately 95 % of the cells”.
For `O=P([O-])([O-])OP(=O)([O-])[O-].[Na+].[Na+].[Na+].[Na+]` [sodium pyrophosphate], the SMC detachment entry with HGPS-iPSC SMCs [1] (calcification inhibition, sodium pyrophosphate 0.9 mM, arterial flow) was “significant decreased in SMC detachment”.

These data come from patent publication US20180000817A1, “TREATMENT OF HUTCHINSON-GILFORD PROGERIA SYNDROME AND DISEASES RELATED TO VASCULAR AGEING” (BIOCANT - ASSOCIAÇÃO DE TRANSFERÊNCIA DE TECNOLOGIA, priority 2015, published 2018).
